PubChem BioAssay AID330 (DTP/NCI, 2004)
Values joined by “and” are separate entries in the source; they are usually repeats but may differ in a detail not shown here. Equal values may be shown once. Inconclusive results and toxic doses are left out. The calls were made as follows: active = survival T/C of 150% or more; inactive = T/C below 125% in these data.

Tested on: P388 leukemia ip, CD2F1 mice, survival T/C
Experiment: NCI In Vivo Anticancer Drug Screen. Data for tumor model P388 Leukemia (intraperitoneal) in CD2F1 (CDF1) mice
Details: endpoint: median survival time, higher = longer survival
Outline: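 Mice carrying the transplanted tumor received test compound or vehicle. Survival was recorded in each group, and the value is the treated-group measurement divided by that of the vehicle-treated control group.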

[1] = dose: 50.0 mg/kg/injection, schedule: Q01DX005 (ip), vehicle: Klucel (hydroxypropylcellulose) (HPC)
[2] = dose: 100.0 mg/kg/injection, schedule: Q01DX005 (ip), vehicle: Klucel (hydroxypropylcellulose) (HPC)
[3] = dose: 200.0 mg/kg/injection, schedule: Q01DX005 (ip), vehicle: Klucel (hydroxypropylcellulose) (HPC)
[4] = dose: 50.0 mg/kg/injection, schedule: Q01DX005 (ip), vehicle: saline with Tween-80
[5] = dose: 100.0 mg/kg/injection, schedule: Q01DX005 (ip), vehicle: saline with Tween-80

Measured: T/C

COc1cc(Oc2c(C)c(Cl)c(OC)c(Cl)c2OC)c2c(c1Cl)COC2=O
inactive: dose: 7.5 mg/kg/injection, schedule: Q01DX005 (ip), vehicle: Klucel (hydroxypropylcellulose) (HPC) 97 % of control | dose: 15.0 mg/kg/injection, schedule: Q01DX005 (ip), vehicle: Klucel (hydroxypropylcellulose) (HPC) 97 % of control | dose: 30.0 mg/kg/injection, schedule: Q01DX005 (ip), vehicle: Klucel (hydroxypropylcellulose) (HPC) 100 % of control

Cc1c(N=Nc2cccc(Cl)c2)c(-c2ccccc2)nn1C(N)=S
inactive: dose: 100.0 mg/kg/injection, schedule: Q01DX001 (ip), vehicle: saline with Tween-80 89 % of control | dose: 200.0 mg/kg/injection, schedule: Q01DX001 (ip), vehicle: saline with Tween-80 92 % of control | dose: 400.0 mg/kg/injection, schedule: Q01DX001 (ip), vehicle: saline with Tween-80 90 % of control

O=C(CSc1ccccc1)c1ccccc1
inactive: dose: 10.0 mg/kg/injection, schedule: Q01DX005 (ip), vehicle: Klucel (hydroxypropylcellulose) (HPC) 101 % of control | dose: 20.0 mg/kg/injection, schedule: Q01DX005 (ip), vehicle: Klucel (hydroxypropylcellulose) (HPC) 102 % of control | dose: 40.0 mg/kg/injection, schedule: Q01DX005 (ip), vehicle: Klucel (hydroxypropylcellulose) (HPC) 101 % of control

CCC(C)C1C(=O)OC(C(Cl)(Cl)Cl)N1Cc1ccc(OC)cc1OC (stereo not given)
inactive: dose: 100.0 mg/kg/injection, schedule: Q04DX003 (ip), vehicle: Klucel (hydroxypropylcellulose) (HPC) 109 % of control | dose: 200.0 mg/kg/injection, schedule: Q04DX003 (ip), vehicle: Klucel (hydroxypropylcellulose) (HPC) 107 % of control | dose: 400.0 mg/kg/injection, schedule: Q04DX003 (ip), vehicle: Klucel (hydroxypropylcellulose) (HPC) 104 % of control

O=C1COC(c2ccccc2O)=NN1CCCl
inactive: dose: 50.0 mg/kg/injection, schedule: Q01DX009 (ip), vehicle: saline with Tween-80 103 % of control | dose: 100.0 mg/kg/injection, schedule: Q01DX009 (ip), vehicle: saline with Tween-80 103 % of control | dose: 200.0 mg/kg/injection, schedule: Q01DX009 (ip), vehicle: saline with Tween-80 110 % of control

Cn1c(Br)c(Br)c(=O)n(C)c1=O
inactive: [1] 99 % of control | [2] 100 % of control | [3] 100 % of control

COc1ccc2c(c1)CCc1c(N)ncnc1-2
inactive: dose: 100.0 mg/kg/injection, schedule: Q04DX002 (ip), vehicle: saline with Tween-80 104 % of control | dose: 200.0 mg/kg/injection, schedule: Q04DX002 (ip), vehicle: saline with Tween-80 106 % of control | dose: 400.0 mg/kg/injection, schedule: Q04DX002 (ip), vehicle: saline with Tween-80 107 % of control

CN1CCC(c2ccccc2)C(O)C1 (stereo not given)
inactive: dose: 60.0 mg/kg/injection, schedule: Q01DX005 (ip), vehicle: saline with Tween-80 106 % of control | dose: 120.0 mg/kg/injection, schedule: Q01DX005 (ip), vehicle: saline with Tween-80 105 % of control | dose: 240.0 mg/kg/injection, schedule: Q01DX005 (ip), vehicle: saline with Tween-80 103 % of control

CC1=C(O)C(=O)[C@@H]2O[C@@H]2C1=O
inactive: dose: 1.5 mg/kg/injection, schedule: Q01DX007 (ip), vehicle: saline 111 % of control | dose: 3.0 mg/kg/injection, schedule: Q01DX007 (ip), vehicle: saline 122 % of control | dose: 6.0 mg/kg/injection, schedule: Q01DX007 (ip), vehicle: saline 122 % of control

Cc1ccc(S(=O)(=O)CC(O)(C(C)C)C(C)C)cc1
inactive: [4] 103 % of control | [5] 102 % of control | dose: 200.0 mg/kg/injection, schedule: Q01DX005 (ip), vehicle: saline with Tween-80 102 % of control

C[N+](C)(N)CCS(N)(=O)=O
inactive: dose: 50.0 mg/kg/injection, schedule: Q01DX009 (ip), vehicle: saline 103 % of control | dose: 100.0 mg/kg/injection, schedule: Q01DX009 (ip), vehicle: saline 103 % of control | dose: 200.0 mg/kg/injection, schedule: Q01DX009 (ip), vehicle: saline 100 % of control

C(=N\c1nccs1)/c1ccc[nH]1
inactive: [1] 99 % of control | [2] 96 % of control | [3] 100 % of control

Cc1ccc2nc(N/N=C/c3cccc(C)n3)cc(C)c2c1
inactive: dose: 12.5 mg/kg/injection, schedule: Q01DX005 (ip), vehicle: saline with Tween-80 100 % of control | dose: 25.0 mg/kg/injection, schedule: Q01DX005 (ip), vehicle: saline with Tween-80 90 % of control | [4] 100 % of control and 93 % of control | [5] 100 % of control
